Measurements reported in patent publication EP4782453A1 (Beyang Therapeutics Co., Ltd., priority 2023, dated 2025).

Columns and labels:
Assay type in all cases: cell-based
[1] = system: MEIS1 gene expression; assay: Inhibition of MEIS1 gene expression in human tumor cells (qRT-PCR), MV-4-11; details: MV4-11, MV-4-11 (carrying MLL-AF4), 48 hours of incubation, relative MEIS1 gene expression vs GAPDH, read-out: MV-4-11 MEISI EC50
Description: (§1) Experimental Example 3: Evaluation of Inhibitory Activity of Compounds Against MEISI Gene Expression in Human Tumor Cells
(§2) The effect of test samples on MEIS1 gene expression in vitro cultured human leukemia cells MV-4-11 (carrying MLL-AF4), MOLM-13 (carrying MLL-AF9), and OCI-AML3 (carrying NPM1c) was studied.
(§3) • Human acute lymphoblastic leukemia cells MV-4-11, purchased from American Type Culture Collection, Catalog Number: CRL-9591; • Human acute myeloid leukemia cells MOLM-13, purchased from COBIOER BIOSCIENCES CO., LTD, Catalog Number: CBP60678; • Human acute myeloid leukemia cells OCI-AML3, purchased from COBIOER BIOSCIENCES CO., LTD, Catalog Number: CBP60817; • MEIS1 Primer/Probe, purchased from IDT, Catalog Number: 40831613; and • GAPDH Primer/Probe, purchased from IDT, Catalog Number: 22214836.
(§4) MV-4-11 cells were cultured in an IMDM medium containing 10% fetal bovine serum, or MOLM-13 and OCI-AML3 cells were cultured in an RPMI-1640 medium containing 20% fetal bovine serum, each supplemented with 100 U·mL^-1 penicillin and 100 µg·mL^-1 streptomycin. These cells were cultured at 37°C with 5% CO2. The suspensions of individual cell lines were prepared in their respective media and seeded into 48-well plates at a density of 100,000 cells/well. On the day of the experiment, a compound stock solution was diluted in a 6-fold gradient using DMSO. Each gradient-diluted stock solution was then further diluted 250-fold with a complete medium to prepare a series of working solutions at different concentrations. Next, 250 µL of working solution (containing the complete medium with a 2-fold serial concentration of the test compound or a positive control compound, or containing a control complete medium) was added to each well. After 48 hours of incubation, cells from the 48-well plate were collected into 1 mL centrifuge tubes, centrifuged at 1000 rpm for 5 minutes, and the complete medium was removed. Cells were washed twice with 1 mL PBS and centrifuged to remove PBS. Total RNA was extracted using the RNeasy Mini Kit (250) (QIAGEN, 74106). The threshold cycle (Ct) value for gene expression was determined using the HiScript II U+ One Step qRT-PCR Probe Kit (Vazyme) (Vazyme, Q223-01), with 3 replicates per sample. The prepared reaction mixture was placed in an ABI 7500 real-time PCR instrument, and the reaction proceeded following the procedures below. [formula]
(§5) Next, for the relative MEIS1 gene expression, the concentration (EC50) that inhibits 50% of relative MEIS1 gene expression was calculated using GraphPad Prism 8 software.

[2] = system: MV-4-11 (carrying MLL-AF4); assay: Inhibition of proliferation of human tumor cells (Alamar Blue, 7 days), MV-4-11; details: Homo sapiens, MV4-11, 168 h, MV-4-11 cells (carrying MLL-AF4), method calls the value GI50
How it was run: (§6)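 MV-4-11: IMDM + 10% FBS; KG-1a: IMDM + 20% FBS; MOLM-13: RPMI-1640 + 20% FBS. 3- or 4-fold serial dilutions, duplicates, 7 d at 37°C. Readout Alamar Blue; GI50 vs Day 0 and Day 7 DMSO controls.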

[3] = system: KG-1a (wild-type MLL); assay: Inhibition of proliferation of human tumor cells (Alamar Blue, 7 days), KG-1a control cell line; details: 168 h, KG-1a cells (wild-type MLL, control cell line), method calls the value GI50
How it was run: as §6

[4] = system: MOLM-13 (carrying MLL-AF9); assay: Inhibition of proliferation of human tumor cells (Alamar Blue, 7 days), MOLM-13; details: Homo sapiens, MOLM-13 cells (carrying MLL-AF9), method calls the value GI50
How it was run: as §6

[5] = system: MEIS1 gene expression; assay: Inhibition of MEIS1 gene expression in human tumor cells (qRT-PCR), OCI-AML3; details: OCI-AML-3, OCI-AML3 (carrying NPM1c), 48 hours of incubation, relative MEIS1 gene expression vs GAPDH
Description: as §1, §2, §3, §4, §5

[6] = system: MEIS1 gene expression; assay: Inhibition of MEIS1 gene expression in human tumor cells (qRT-PCR), MOLM-13; details: MOLM-13 (carrying MLL-AF9), 48 hours of incubation, relative MEIS1 gene expression vs GAPDH
Description: as §1, §2, §3, §4, §5

Compound | EC50 [1] [µM] | IC50 [2] [µM] | IC50 [3] [µM] | IC50 ([4]; 168 h) [µM] | EC50 [5] [µM] | EC50 [6] [µM] | IC50 ([4]; MOLM-13, 168 h) [µM]
COCCN(C)CCCC(C(C)C)N1CC(c2cc(-c3ccc(F)cc3C(=O)N3CCOCC3C)c3cnn(C)c3c2)C1 (centres unmarked) [Example 185] | 0.055 | 0.026 | 20 | 0.07 | – | – | –
CCN(C(=O)c1cc(F)ccc1-c1cc(C2CN([C@H](CCCN3C4COCC3C4)C(C)C)C2)cn2c(C)ncc12)C(C)C [Example 423] | 0.0013 | 0.0012 | – | 0.0027 | 0.0061 | 0.0023 | –
CCNC(=O)N1CCC(CN2CC(c3cc(-c4ccc(F)cc4C(=O)N4CCOC[C@H]4C)c4c(F)nc(C)n4c3)C2)CC1 [Example 261] | 0.0085 | 0.0096 | 20 | 0.023 | – | – | –
CCN(C(=O)c1cc(F)ccc1-c1cc(C2CN(C[C@H]3CC[C@H](NS(=O)(=O)CC)CC3)C2)cn2c(C)nc(F)c12)C(C)C [Example 137] | 0.016 | 0.0047 | – | 0.01 | – | 0.009 | –
Cc1nc(F)c2c(-c3ccc(F)cc3C(=O)N3[C@H](C)COC[C@H]3C)cc(C3CN(CC4CCOCC4)C3)cn12 [Example 208] | 0.023 | 0.0066 | 20 | 0.0096 | – | – | –
CNC(=O)N1CCC([C@H](C)N2CC(c3cc(-c4ccc(F)cc4C(=O)N4CCOC[C@H]4C)c4c(F)nc(C)n4c3)C2)CC1 [Example 264-2] | 0.018 | 0.0047 | 20 | 0.012 | – | – | –
Cc1nc(F)c2c(-c3ccc(F)cc3C(=O)N3CCOC[C@H]3C)cc(C3CN([C@H](CCCN4CCN(C5CC5)CC4)C(C)C)C3)cn12 [Example 350] | 0.0068 | – | 12 | 0.0046 | – | 0.004 | –
CCS(=O)(=O)N[C@H]1CC[C@H](CN2CC(c3cc(-c4ccc(F)cc4C(=O)N(CC(F)F)C(C)C)c4cnc(C)n4c3)C2)CC1 [Example 138] | 0.015 | 0.003 | 20 | 0.0076 | – | 0.008 | –
COCCN(C)CCCC(C(C)C)N1CC(c2cc(-c3ccc(F)cc3C(=O)N(CC(F)F)C(C)C)c3c(F)nc(C)n3c2)C1 (centres unmarked) [Example 142, N-(2,2-difluoroethyl)-5-fluoro-2-[1-fluoro-6-(1-{6-[(2-methoxyethyl)(methyl)amino]-2-methylhexan-3-yl}azacyclobutan-3-yl)-3-methylimidazo[1,5-a]pyridin-8-yl]-N-(isopropyl)benzamide] | 0.006 | 0.0022 | 3.6 | 0.01 | – | 0.0023 | –
CCN(C(=O)c1cc(F)ccc1-c1cc(C2CN([C@@H](C)C3CCN(C(=O)CO)CC3)C2)cn2c(C)nc(F)c12)C(C)C [Example 284-2] | – | 0.0015 | – | 0.0068 | 0.0058 | 0.0059 | –
Cc1nc(F)c2c(-c3ccc(F)cc3C(=O)N3CCOCC3C)cc(C3CN(C(CCCN4CCCC(O)C4)C(C)C)C3)cn12 (centres unmarked) [Example 292] | 0.015 | 0.0024 | 20 | 0.013 | – | – | –
CCS(=O)(=O)N[C@H]1CC[C@H](CN2CC(c3cc(-c4ccc(F)cc4C(=O)N4CCOC[C@H]4C)c4cnc(C)n4c3)C2)CC1 [Example 134, N-[(1r,4r)-4-{[3-(8-{4-fluoro-2-[(3R)-3-methylmorpholin-4-carbonyl]phenyl}-3-methylimidazo[1,5-a]pyridin-6-yl)azacyclobutan-1-yl]methyl}cyclohexyl]ethan-1-sulfonamide] | 0.055 | 0.026 | 20 | 0.021 | – | 0.053 | –
CO[C@@H]1CCCN(CCC[C@H](C(C)C)N2CC(c3cc(-c4ccc(F)cc4C(=O)N4CCOC[C@H]4C)c4c(F)nc(C)n4c3)C2)C1 [Example 305] | 0.0076 | 0.0034 | 20 | 0.012 | – | – | –
CCS(=O)(=O)N[C@H]1CC[C@H](CN2CC(c3cc(-c4ccc(F)cc4C(=O)N4[C@H](C)COC[C@H]4C)c4c(F)nc(C)n4c3)C2)CC1 [Example 197, N-[(1r,4r)-4-{[3-(8-{2-[(3R,5R)-3,5-dimethylmorpholin-4-carbonyl]-4-fluorophenyl}-1-fluoro-3-methylimidazo[1,5-a]pyridin-6-yl)azacyclobutan-1-yl]methyl}cyclohexyl]ethan-1-sulfonamide] | 0.014 | 0.004 | 20 | – | – | – | 0.0102
CO[C@@H]1CCN(CCC[C@H](C(C)C)N2CC(c3cc(-c4ccc(F)cc4C(=O)N4CCOC[C@H]4C)c4c(F)nc(C)n4c3)C2)C1 [Example 202] | 0.0035 | 0.0018 | 20 | 0.011 | – | – | –
CCN(C(=O)c1cc(F)ccc1-c1cc(C2(F)CN(C(=O)C3NC4CCC3CC4)C2)cn2c(C)ncc12)C(C)C [Example 75, N-ethyl-5-fluoro-2-(6-{3-fluoro-1-[(1R,3S,4S)-2-azabicyclo[2.2.2]octan-3-carbonyl]azacyclobutan-3-yl}-3-methylimidazo[1,5-a]pyridin-8-yl)-N-(isopropyl) benzamide] | 0.082 | 0.025 | 20 | – | – | – | 0.078
Cc1nc(F)c2c(-c3ccc(F)cc3C(=O)N3CCOC[C@H]3C)cc(C3CN(C(CC[C@@H]4COCCN4)C(C)C)C3)cn12 (stereo partly drawn) [Example 371, (3R)-4-{5-fluoro-2-[1-fluoro-3-methyl-6-(1-{4-methyl-1-[(3R)-morpholin-3-yl]pentan-3-yl}azacyclobutan-3-yl)imidazo[1,5-a]pyridin-8-yl]benzoyl}-3-methylmorpholine] | 0.003 | – | > 20 | 0.0053 | – | 0.0011 | –
CCN(C(=O)c1cc(F)ccc1-c1cc(C2CCN(Cc3ccc(-c4cc(OC)c(OC)nn4)cc3)C2)cn2c(C)ncc12)C(C)C (centres unmarked) [Example 83] | 0.024 | 0.0055 | 7.4 | 0.033 | – | – | –
CC(=O)N1CCC(CN2CC(c3cc(-c4ccc(F)cc4C(=O)N4[C@H](C)COC[C@H]4C)c4c(F)nc(C)n4c3)C2)CC1 [Example 205] | 0.018 | 0.0074 | 20 | 0.019 | – | – | –
CO[C@H]1CCCN(CCC[C@H](C(C)C)N2CC(c3cc(-c4ccc(F)cc4C(=O)N4CCOC[C@H]4C)c4c(F)nc(C)n4c3)C2)C1 [Example 306] | 0.0046 | 0.0028 | 20 | 0.0077 | – | – | –
Cc1nc(F)c2c(-c3ccc(F)cc3C(=O)N3CCOC[C@H]3C)cc(C3CN([C@H](CO[C@H]4CCCN(C)C4)C(C)C)C3)cn12 [Example 321-2, (3R)-4-[5-fluoro-2-(1-fluoro-3-methyl-6-{1-[(2S)-3-methyl-1-{[(3S)-1-methylpiperidin-3-yl]oxy}butan-2-yl]azacyclobutan-3-yl}imidazo[1,5-a]pyridin-8yl)benzoyl]-3-methylmorpholine] | – | 0.0026 | – | 0.017 | 0.032 | 0.01 | –
COCCN(C)CCC[C@H](C(C)C)N1CC(c2cc(-c3ccc(F)cc3C(=O)N3[C@H](C)COC[C@H]3C)c3cnn(C)c3c2)C1 [Example 186-2, [(4R)-4-[3-(4-{2-[(3R,5R)-3,5-dimethylmorpholin-4-carbonyl]-4-fluorophenyl}-1-methyl-1H-indazol-6-yl)azacyclobutan-1-yl]-5-methylhexyl](2-methoxyethyl)methylamine] | 0.0038 | 0.0043 | 20 | 0.028 | – | – | –
